Test results reported in ChEMBL document CHEMBL4002633, “Synthesis, evaluation and quantitative structure-activity relationship (QSAR) analysis of Wogonin derivatives as cytotoxic agents” (Bioorg Med Chem Lett, 2017).

Legend:
Format in all cases: functional, cell-based
[1] = Cytotoxicity against human BCG823 cells assessed as reduction in cell viability after 48 hrs by MTT assay; conditions: BCG823, 48 h
HepG2 = test: Cytotoxicity against human HepG2 cells assessed as reduction in cell viability after 48 hrs by MTT assay; conditions: HepG2, 48 h
A549 = test: Cytotoxicity against human A549 cells assessed as reduction in cell viability after 48 hrs by MTT assay; conditions: A549, 48 h

Structure (SMILES)	IC50 [1]	IC50 (HepG2; read-out: IC50)	IC50 (HepG2; read-out: pIC50 (converted))	IC50 (A549)
CNCCOc1c(O)cc(O)c2c(=O)cc(-c3ccccc3)oc12	59.9 µM	64.2 µM	64.6 µM	
COc1c(OCCCN2CCN(C)CC2)cc(O)c2c(=O)cc(-c3ccccc3)oc12	52.7 µM	31.6 µM	31.6 µM	9.9 µM
COc1c(OCCCCN2CCCC2)cc(O)c2c(=O)cc(-c3ccccc3)oc12	6.34 µM	3.61 µM	3.63 µM	1.53 µM
COc1c(OCCCCN2CCCCC2)cc(O)c2c(=O)cc(-c3ccccc3)oc12	18.2 µM	1.97 µM	1.95 µM	1.15 µM
O=c1cc(-c2ccccc2)oc2c(OCCCN3CCCC3)c(O)cc(O)c12		58.5 µM	58.9 µM	> 100 µM
CN1CCN(CCOc2c(O)cc(O)c3c(=O)cc(-c4ccccc4)oc23)CC1		56.6 µM	56.2 µM	> 100 µM
COc1c(OCCCCNCc2ccccc2)cc(O)c2c(=O)cc(-c3ccccc3)oc12	48.1 µM	45.7 µM	45.7 µM	4.59 µM
COc1c(O)cc(O)c2c(=O)cc(-c3ccc(F)cc3)oc12		43.9 µM	43.7 µM	
COc1c(O)cc(O)c2c(=O)cc(-c3ccc(C)cc3)oc12		24.9 µM	25.1 µM	
CN1CCN(CCCOc2c(O)cc(O)c3c(=O)cc(-c4ccccc4)oc23)CC1		42.6 µM	42.7 µM	> 100 µM
COc1c(OCCCN2CCCC2)cc(O)c2c(=O)cc(-c3ccccc3)oc12	17.9 µM	15.4 µM	15.5 µM	1.39 µM
COc1c(O)cc(O)c2c(=O)cc(-c3ccc(Br)cc3)oc12		38.2 µM	38 µM	
O=c1cc(-c2ccccc2)oc2c(OCCN3CCCC3)c(O)cc(O)c12		68.5 µM	69.2 µM	67.7 µM
COc1c(OCc2nc3ccccc3[nH]2)cc(O)c2c(=O)cc(-c3ccccc3)oc12		29.4 µM	29.5 µM	> 100 µM
COc1c(OCCCN2CCNCC2)cc(O)c2c(=O)cc(-c3ccccc3)oc12	12 µM	9.14 µM	9.12 µM	10.1 µM
CN1CCN(CCCCOc2c(O)cc(O)c3c(=O)cc(-c4ccccc4)oc23)CC1		15.1 µM	15.1 µM	> 100 µM
CCCCNCCCCOc1c(O)cc(O)c2c(=O)cc(-c3ccccc3)oc12	61.9 µM	38.9 µM	38.9 µM	
COc1c(O)cc(O)c2c(=O)cc(-c3cccc(F)c3)oc12		59.4 µM	58.9 µM	
CCN(CC)CCCOc1cc(O)c2c(=O)cc(-c3ccccc3)oc2c1OC	13.3 µM	3.33 µM	3.31 µM	1.83 µM
O=c1cc(-c2ccccc2)oc2c(OCCNCCO)c(O)cc(O)c12	59.8 µM	57 µM	57.5 µM	
CCCCNCCOc1c(O)cc(O)c2c(=O)cc(-c3ccccc3)oc12	72.4 µM	57.2 µM	57.5 µM	
COc1c(OCCCCN2CCOCC2)cc(O)c2c(=O)cc(-c3ccccc3)oc12	5.3 µM	3.3 µM	3.31 µM	1.52 µM
CCCNCCOc1c(O)cc(O)c2c(=O)cc(-c3ccccc3)oc12	63 µM	98.4 µM	97.7 µM	
O=c1[nH]cc(F)c(=O)[nH]1 [FLUOROURACIL]	10.1 µM	17.2 µM		16.1 µM
COc1ccc(-c2cc(=O)c3c(O)cc(O)c(OC)c3o2)cc1 [GALANGUSTIN]		42.4 µM	42.7 µM	
COc1c(O)cc(O)c2c(=O)cc(-c3ccccc3)oc12 [WOGONIN]	16.5 µM	19 µM	19.1 µM	15.8 µM
